Data: US11976057B2, “MrgX2 antagonists” (GlaxoSmithKline Intellectual Property Development Limited, priority 2020, dated 2024)

Target: T1, human MRGPRX2 (Homo sapiens, UniProt Q96LB1)
T1 sequence (Q96LB1 1-330): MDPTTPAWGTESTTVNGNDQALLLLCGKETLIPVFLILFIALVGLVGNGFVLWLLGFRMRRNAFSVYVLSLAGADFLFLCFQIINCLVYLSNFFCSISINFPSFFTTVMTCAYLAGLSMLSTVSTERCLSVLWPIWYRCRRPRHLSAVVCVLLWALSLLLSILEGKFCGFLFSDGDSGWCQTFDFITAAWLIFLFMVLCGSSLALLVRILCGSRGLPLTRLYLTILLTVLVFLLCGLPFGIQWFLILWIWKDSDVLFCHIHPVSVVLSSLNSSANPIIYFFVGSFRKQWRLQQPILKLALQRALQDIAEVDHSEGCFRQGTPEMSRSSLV
Assay: Ca2+ mobilization assay (FLIPR TETRA): inhibition of Cortistatin-14 mediated MRGPRX2 activation

| SMILES | IC50 |
| --- | --- |
| Cc1cccc(-c2ccc(NC(=O)[C@H](C)N3CCC(F)(F)[C@@H](c4ccc(=O)[nH]c4)C3)nc2)c1 [Example 16, (S)-2-((S)-4,4-difluoro-3-(6-oxo-1,6-dihydropyridin-3-yl)piperidin-1-yl)-N-(5-(m-tolyl)pyridin-2-yl)propanamide] | 10 to 100 nM |
| C[C@@H](C(=O)Nc1ccc(F)cn1)N1CCC(F)(F)[C@@H](c2ccc(=O)[nH]c2)C1 [Example 79, (S)-2-((S)-4,4-difluoro-3-(6-oxo-1,6-dihydropyridin-3-yl)piperidin-1-yl)-N-(5-fluoropyridin-2-yl)propanamide] | 10 to 100 nM |
| C[C@@H](C(=O)Nc1ccc(OCC2CC2)cn1)N1CCC(F)(F)[C@@](C)(c2ccc(=O)[nH]c2)C1 [Example 163, (S)—N-(5-(cyclopropylmethoxy)pyridin-2-yl)-2-((S)-4,4-difluoro-3-methyl-3-(6-oxo-1,6-dihydropyridin-3-yl)piperidin-1-yl)propanamide] | 100 to 3160 nM |
| C[C@@H](C(=O)Nc1ccc(-c2ccccc2)cn1)N1CCC(F)(F)[C@@H](c2ccc(=O)[nH]c2)C1 [Example 23, (S)-2-((S)-4,4-difluoro-3-(6-oxo-1,6-dihydropyridin-3-yl)piperidin-1-yl)-N-(5-phenylpyridin-2-yl)propanamide] | 100 to 3160 nM |
| C[C@@H](C(=O)Nc1ccc(Oc2ncc(F)cc2F)cn1)N1CCC(F)(F)[C@@H](c2c[nH]c(=O)c(CN3CCOCC3)c2)C1 [Example 228, (S)-2-((S)-4,4-difluoro-3-(5-(morpholinomethyl)-6-oxo-1,6-dihydropyridin-3-yl)piperidin-1-yl)-N-(5-((3,5-difluoropyridin-2-yl)oxy)pyridin-2-yl)propanamide] | 10 to 100 nM |
| C[C@@H](C(=O)Nc1ccc(F)cn1)N1CCC(F)(F)[C@@H](c2c[nH]c(=O)c(CC(F)(F)F)c2)C1 [Example 151, (S)-2-((S)-4,4-difluoro-3-(6-oxo-5-(2,2,2-trifluoroethyl)-1,6-dihydropyridin-3-yl)piperidin-1-yl)-N-(5-fluoropyridin-2-yl)propanamide] | 10 to 100 nM |
| C[C@@H](C(=O)Nc1ccc(Cl)cn1)N1CCC[C@@H](c2c[nH]c(=O)c(CN)c2)C1 (single isomer, unassigned) [Example 175] | 3160 to 31600 nM |
| C[C@@H](C(=O)Nc1ccc(OCc2ccccc2)cn1)N1CCC(F)(F)[C@@H](c2ccc(=O)[nH]c2)C1 [Example 22, (S)-N-(5-(benzyloxy)pyridin-2-yl)-2-((S)-4,4-difluoro-3-(6-oxo-1,6-dihydropyridin-3-yl)piperidin-1-yl)propanamide] | 100 to 3160 nM |
| C[C@@H](C(=O)Nc1ccc(OCC2CC2)nn1)N1CCC(F)(F)[C@@H](c2ccc(=O)[nH]c2)C1 [Example 8, N-(6-(cyclopropylmeth-oxy)pyridazin-3-yl)-2-((S)-4,4-difluoro-3-(6-oxo-1,6-dihydropyridin-3-yl)piperidin-1-yl)propanamide] | 10 to 100 nM |
| CC(C(=O)Nc1ccc(F)cn1)N1CCC(F)(F)C(c2cc[n+]([O-])c(C(O)C(F)(F)F)c2)C1 (stereo not shown) [Example 256, 4-(4,4-difluoro-1-(1-((5-fluoropyridin-2-yl)amino)-1-oxopropan-2-yl)piperidin-3-yl)-2-(2,2,2-trifluoro-1-hydroxyethyl)pyridine 1-oxide] | 10 to 100 nM |
| C[C@@H](C(=O)Nc1ccc(Oc2ccccn2)cn1)N1CCC(F)(F)[C@@H](c2ccc(=O)[nH]c2)C1 [Example 61, (S)-2-((S)-4,4-difluoro-3-(6-oxo-1,6-dihydropyridin-3-yl)piperidin-1-yl)-N-(5-(pyridin-2-yloxy)pyridin-2-yl)propanamide] | 10 to 100 nM |
| CC(C(=O)Nc1ccc(F)cn1)N1CCC(F)(F)C(c2ccc(=O)n(Cc3ccncc3)c2)C1 (stereo not shown) [Example 197, 2-(4,4-difluoro-3-(6-oxo-1-(pyridin-4-ylmethyl)-1,6-dihydropyridin-3-yl)piperidin-1-yl)-N-(5-fluoropyridin-2-yl)propanamide] | 10 to 100 nM |
| CC(C(=O)Nc1ccc(Oc2ccc(F)cc2)cn1)N1CCC(F)(F)C(c2c[nH]c(=O)c(CN(C)C)c2)C1 (stereo not shown) [Example 230, 2-(3-(5-((dimethylamino)methyl)-6-oxo-1,6-dihydropyridin-3-yl)-4,4-difluoropiperidin-1-yl)-N-(5-(4-fluorophenoxy)pyridin-2-yl)propanamide] | 10 to 100 nM |

Results, then the compound that gave them:

| IC50 | SMILES |
| --- | --- |
| 10 to 100 nM | C[C@@H](C(=O)Nc1ccc(Oc2ccc(F)cn2)cn1)[C@H]1CCC[C@@H](c2cc[n+]([O-])cc2)C1 [Example 287, 4-((1R,3S)-3-((R)-1-((5-((5-fluoropyridin-2-yl)oxy)pyridin-2-yl)amino)-1-oxopropan-2-yl)cyclohexyl)pyridine 1-oxide] |
| 10 to 100 nM | C[C@@H](C(=O)Nc1ccc(Oc2ccc(F)cc2F)cn1)N1CCC(F)(F)C(c2cc(C(O)C(F)(F)F)c[n+]([O-])c2)C1 (mixture of isomers) [Example 266, 3-(1-(1-((5-(2,4-difluorophenoxy)pyridin-2-yl)amino)-1-oxopropan-2-yl)-4,4-difluoropiperidin-3-yl)-5-(2,2,2-trifluoro-1-hydroxyethyl)pyridine 1-oxide] |
| ≤ 10 nM | C[C@@H](C(=O)Nc1ccc(Oc2ccc(F)cn2)cn1)N1CCC(F)(F)[C@@H](c2ccc(=O)[nH]c2)C1 [Example 69, (S)-2-((S)-4,4-difluoro-3-(6-oxo-1,6-dihydropyridin-3-yl)piperidin-1-yl)-N-(5-((5-fluoropyridin-2-yl)oxy)pyridin-2-yl)propanamide] |
| ≤ 10 nM | C[C@@H](C(=O)Nc1ccc(OCC2CC2)nn1)N1CCC(F)(F)[C@@H](c2c[nH]c(=O)c(N)n2)C1 (single isomer, unassigned) [Example 104] |
| ≤ 10 nM | C[C@@H](C(=O)Nc1ccc(Oc2ccc(F)cc2F)cn1)N1CCC(F)(F)[C@@H](c2c[nH]c(=O)c(CN3CCOCC3)c2)C1 [Example 227, (S)-2-((S)-4,4-difluoro-3-(5-(morpholinomethyl)-6-oxo-1,6-dihydropyridin-3-yl)piperidin-1-yl)-N-(5-(2,4-difluorophenoxy)pyridin-2-yl)propanamide] |
| ≤ 10 nM | C[C@@H](C(=O)Nc1ccc(Oc2ccc(F)cc2F)cn1)[C@H]1CCC[C@@H](c2cc[n+]([O-])cc2)C1 [Example 289, 4-((1R,3S)-3-((R)-1-((5-(2,4-difluorophenoxy)pyridin-2-yl)amino)-1-oxopropan-2-yl)cyclohexyl)pyridine 1-oxide] |
| ≤ 10 nM | C[C@@H](C(=O)Nc1ccc(Oc2ccc(F)cn2)cn1)[C@H]1CCC[C@@H](c2ccc(=O)[nH]c2)C1 [Example 283, (R)-N-(5((5-fluoropyridin-2-yl)oxy)pyridin-2-yl)-2-((1S,3R)-3-(6-oxo-1,6-dihydropyridin-3-yl)cyclohexyl)propanamide] |
| ≤ 10 nM | C[C@@H](C(=O)Nc1ccc(Oc2cc(F)c(F)cc2F)cn1)N1CCC(F)(F)[C@@H](c2ccc(=O)[nH]c2)C1 [Example 97, (S)-2-((S)-4,4-difluoro-3-(6-oxo-1,6-dihydropyridin-3-yl)piperidin-1-yl)-N-(5-(2,4,5-trifluorophenoxy)pyridin-2-yl)propanamide] |
| ≤ 10 nM | CC(=O)NCc1cc(C2CN(C(C)C(=O)Nc3ccc(Oc4ccc(F)cc4F)cn3)CCC2(F)F)cc[n+]1[O-] (mixture of isomers) [Example 262, 2-(acetamidomethyl)-4-(1-(1-((5-(2,4-difluorophenoxy)pyridin-2-yl)amino)-1-oxopropan-2-yl)-4,4-difluoropiperidin-3-yl)pyridine 1-oxide] |
